Results as given in patent US20260242352A1, “INHIBITION OF SHIP1 AS A THERAPEUTIC STRATEGY FOR THE TREATMENT OF ALZHEIMER'S DISEASE” (The Trustees of Indiana University, priority 2022, published 2026).

Columns and labels:
[1] = target: T1, HiBit-labeled full length SHIP1 protein (Homo sapiens, UniProt Q92835); assay: Cellular thermal shift assay (SplitLuc CETSA), compound dose response; format: cell-based; details: HMC3/HiBit-INPP5D cells, 60 min; for CETSA Min Inhibition (%): heated at 44.2° C.; for AC50: heated at 44.2° C. for 3 min, 8-point curve from 80 uM or 100 uM
T1 construct: thermal stability of a HiBit-labeled full length SHIP1 protein in intact cells; expressed in transfected cells; host or cells: HMC3 (stably transfected)
T1 sequence (Q92835 1-1189): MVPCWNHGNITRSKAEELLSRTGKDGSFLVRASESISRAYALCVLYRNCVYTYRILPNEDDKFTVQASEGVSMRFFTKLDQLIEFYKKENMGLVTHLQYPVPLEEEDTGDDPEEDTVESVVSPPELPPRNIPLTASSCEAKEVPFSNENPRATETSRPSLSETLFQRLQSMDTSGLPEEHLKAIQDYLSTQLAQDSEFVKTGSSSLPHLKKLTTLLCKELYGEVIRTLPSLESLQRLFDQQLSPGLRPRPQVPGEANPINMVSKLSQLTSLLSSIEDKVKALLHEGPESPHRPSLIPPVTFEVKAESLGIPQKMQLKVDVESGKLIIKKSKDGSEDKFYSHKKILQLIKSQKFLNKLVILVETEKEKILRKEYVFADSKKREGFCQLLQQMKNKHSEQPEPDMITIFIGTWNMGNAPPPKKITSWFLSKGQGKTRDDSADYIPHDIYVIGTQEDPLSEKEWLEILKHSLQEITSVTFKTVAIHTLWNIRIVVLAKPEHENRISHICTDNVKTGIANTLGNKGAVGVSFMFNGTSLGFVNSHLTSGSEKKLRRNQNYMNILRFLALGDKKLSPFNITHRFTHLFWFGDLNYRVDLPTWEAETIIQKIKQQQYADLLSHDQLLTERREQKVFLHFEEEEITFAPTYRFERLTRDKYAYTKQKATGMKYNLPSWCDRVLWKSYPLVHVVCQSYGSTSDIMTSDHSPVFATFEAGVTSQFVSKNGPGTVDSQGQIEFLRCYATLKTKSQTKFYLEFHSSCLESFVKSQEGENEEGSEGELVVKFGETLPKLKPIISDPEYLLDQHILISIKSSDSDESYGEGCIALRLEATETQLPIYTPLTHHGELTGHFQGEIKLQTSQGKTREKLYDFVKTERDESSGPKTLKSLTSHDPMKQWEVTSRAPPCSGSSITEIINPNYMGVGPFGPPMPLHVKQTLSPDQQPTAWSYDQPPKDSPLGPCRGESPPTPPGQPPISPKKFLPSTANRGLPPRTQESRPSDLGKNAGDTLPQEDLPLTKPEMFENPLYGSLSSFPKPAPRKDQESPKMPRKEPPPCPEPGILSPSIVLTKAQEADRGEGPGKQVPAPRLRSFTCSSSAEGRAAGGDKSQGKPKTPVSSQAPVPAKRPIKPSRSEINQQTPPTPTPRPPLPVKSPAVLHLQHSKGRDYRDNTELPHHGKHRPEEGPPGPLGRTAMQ
Description: Cellular thermal shift assay (CETSA). […] This assay was run in the following two formats with HMC3/HiBit-INPP5D stably transfected cells.
2. Compound dose response: run at target Tm (44.2° C. for SHIP1) with compound dosing from 80 uM or 100 uM with 1:3 serial dilutions to generate an 8 point curve. Cells were treated for 60 min before being heated at target Tm for 3 min before luminescence detection. An AC50 was calculated using a four-parameter logistic curve regression model with change at highest concentration noted when difference from control >3SD, otherwise AC50 marked as “nc” for not calculated.
See Martinez et al. (2018) Sci Rep 8: p. 9472; Oh-Hashi et al. (2017) Biochem Biophys Rep 12: pp. 40-45. This assay was run in the following two formats with HMC3/HiBit-INPP5D stably transfected cells.
Compound dose response: run at target Tm (44.2° C. for SHIP1) with compound dosing from 80 uM or 100 uM with 1:3 serial dilutions to generate an 8-point curve. Cells were treated for 60 min before being heated at target Tm for 3 min before luminescence detection. The concentration that induced a half-maximum response (AC50) was calculated using a four-parameter logistic curve regression model with change at highest concentration noted when difference from control >3SD.

[2] = tested on: phosphorylated and total AKT (pAKT/tAKT) in THP1 cells; assay: PhosphoAKT assay; format: cell-based; details: Homo sapiens, THP-1, 1.5 h, 90 minutes, pAKT (S473)/tAKT ratio, (n) in cell
Description: (§1) PhosphoAKT assay. THP1 cells were treated with inhibitors for 90 minutes and then the levels of phosphorylated and total AKT (pAKT/tAKT) were detected using the Perkin Elmer Alpha SureFire Ultra Multiplex PhosphoAKT (S473) kit according to the manufacturer's directions. IC50 values were calculated by fitting the ratio of pATK/tAKT versus inhibitor concentration.
as §1, with “THP1” for “PhosphoAKT assay. THP1”

Compound	CETSA Min Inhibition (%) [1]	IC50 [2]	AC50 [1]
CC(C)(C)OC(=O)N1CCC(n2cc(-c3cncc(OCc4ccccc4Cl)c3)cn2)CC1 [Compound 1, tert-butyl 4-(4-{5-[(2-chlorophenyl)methoxy]pyridin-3-yl}-1H-pyrazol-1-yl)piperidine-1-carboxylate]	74.7%		
CC(C)(C)OC(=O)N1CCC(n2cc(-c3cncc(OCc4ccccc4F)c3)cn2)CC1 [Compound 2, tert-butyl 4-(4-(5-((2-fluorobenzyl)oxy)pyridin-3-yl)-1H-pyrazol-1-yl)piperidine-1-carboxylate]	70.6%		
Cc1ccccc1COc1cncc(-c2cnn(C3CCN(C(=O)OC(C)(C)C)CC3)c2)c1 [Compound 3, tert-butyl 4-(4-(5-((2-methylbenzyl)oxy)pyridin-3-yl)-1H-pyrazol-1-yl)piperidine-1-carboxylate]	60.8%	31.2 µM	77 µM
CC(C)(C)OC(=O)N1CCC(n2cc(-c3cncc(OCc4ccccc4)c3)cn2)CC1 [Compound 4, tert-butyl 4-(4-(5-(benzyloxy)pyridin-3-yl)-1H-pyrazol-1-yl)piperidine-1-carboxylate]	69.2%	31.6 µM	> 80 µM
CC(C)(C)OC(=O)N1CCC(n2cc(-c3cncc(OCc4ccc(Br)cc4)c3)cn2)CC1 [Compound 7, tert-butyl 4-(4-(5-((4-bromobenzyl)oxy)pyridin-3-yl)-1H-pyrazol-1-yl)piperidine-1-carboxylate]	66.3%		
Cl.Clc1ccccc1COc1cncc(-c2cnn(C3CCNCC3)c2)c1 [Compound 9, 3-((2-chlorobenzyl)oxy)-5-(1-(piperidin-4-yl)-1H-pyrazol-4-yl)pyridine hydrochloride]	16.0%		55 µM
Cl.Clc1ccc(COc2cncc(-c3cnn(C4CCNCC4)c3)c2)c(Cl)c1 [Compound 10, 3-((2,4-dichlorobenzyl)oxy)-5-(1-(piperidin-4-yl)-1H-pyrazol-4-yl)pyridine hydrochloride]	10.2%	6.52 µM	53.8 µM
CC(C)(C)CCN1CCC(n2cc(-c3cncc(OCc4ccccc4Cl)c3)cn2)CC1 [Compound 15, 3-((2-chlorobenzyl)oxy)-5-(1-(1-(3,3-dimethylbutyl)piperidin-4-yl)-1H-pyrazol-4-yl)pyridine]	66.7%	17.9 µM	
CC(C)(C)CC(=O)N1CCC(n2cc(-c3cncc(OCc4ccccc4Cl)c3)cn2)CC1 [Compound 16, 1-(4-(4-(5-((2-chlorobenzyl)oxy)pyridin-3-yl)-1H-pyrazol-1-yl)piperidin-1-yl)-3,3-dimethylbutan-1-one]	64.5%	> 60 µM	79.6 µM
C[C@H](Oc1cncc(-c2cnn(C3CCNCC3)c2)c1)c1ccccc1Cl [Compound 21, (S)-3-(1-(2-chlorophenyl)ethoxy)-5-(1-(piperidin-4-yl)-1H-pyrazol-4-yl)pyridine]	24.9%		54.7 µM
C[C@@H](Oc1cncc(-c2cnn(C3CCNCC3)c2)c1)c1ccccc1Cl [Compound 22, (R)-3-(1-(2-chlorophenyl)ethoxy)-5-(1-(piperidin-4-yl)-1H-pyrazol-4-yl)pyridine]	24.6%		43.4 µM

More lines, now with the values ahead:

CETSA Min Inhibition (%) [1]	IC50 [2]	AC50 [1]	Compound
8.15%	4.06 µM	50.6 µM	C[C@@H](Oc1cncc(-c2cnn(C3CCNCC3)c2)c1)c1ccc(Cl)cc1 [Compound 23, (R)-3-(1-(4-chlorophenyl)ethoxy)-5-(1-(piperidin-4-yl)-1H-pyrazol-4-yl)pyridine]
24.9%	58.4 µM	83.6 µM	Cc1ccccc1COc1cncc(-c2cnn(C3CCNCC3)c2)c1 [Compound 25, 3-[(2-Methylphenyl)methoxy]-5-[1-(piperidin-4-yl)-1H-pyrazol-4-yl]pyridine]
14.6%	7.72 µM	87.4 µM	Clc1ccccc1COc1cncc(-c2ccn(C3CCNCC3)n2)c1 [Compound 26, 3-((2-chlorobenzyl)oxy)-5-(1-(piperidin-4-yl)-1H-pyrazol-3-yl)pyridine]
10.1%	> 60 µM	57.1 µM	Clc1ccccc1COc1cncc(-n2ccc(C3CCNCC3)n2)c1 [Compound 27, 3-((2-chlorobenzyl)oxy)-5-(3-(piperidin-4-yl)-1H-pyrazol-1-yl)pyridine]
5.98%	5.57 µM	55.5 µM	Clc1ccccc1COc1cncc(-n2cc(C3CCNCC3)cn2)c1 [Compound 28, 3-((2-chlorobenzyl)oxy)-5-(4-(piperidin-4-yl)-1H-pyrazol-1-yl)pyridine]
28.4%	6.55 µM	55 µM	Clc1ccccc1COc1cccc(-c2cnn(C3CCNCC3)c2)c1 [Compound 29, 4-(4-(3-((2-chlorobenzyl)oxy)phenyl)-1H-pyrazol-1-yl)piperidine]
